Data as given in US12133846B2, “Electrophilic androgen receptor (AR) antagonists for AR downregulation and ferroptosis induction in cancer cells” (priority 2019, dated 2024).
pIC50: −log10 of the molar value. Where two headings read alike, the source gives them in different places.

What was measured:
VCaP cells [1] = assay: Ferroptosis rescue/enhancement of 2-63 plus BSO, MTT, VCaP cells; format: cell-based; conditions: for rescue of 2-63 plus BSO-caused viability loss, VCaP cells: BSO 100 μM 16 h, 2-63 2.5 μM 24 h, DFO 100 μM, α-Toc 100 μM, Fer-1 0.5 μM, ZnPP 3 μM
Excerpt: (§1) It was first investigated if iron chelators or antioxidants could rescue the viability of drug combination-treated cells. […] HO-1 catalyzes the decomposition of heme into carbon monoxide, biliverdin, and Fe^2+. […] Both Fer-1 and the lipophilic antioxidant α-Toc can effectively scavenge radicals in phosphatidylcholine lipid bilayers and break the redox cycle that generates lipid hydroperoxide.

22Rv1 cells [2] = assay: Ferroptosis rescue of 2-63 plus BSO, MTT, 22Rv1 cells; format: cell-based; conditions: BSO 100 μM 16 h, 2-63 5 μM 24 h; DFO 100 μM, α-Toc 100 μM, Fer-1 0.5 μM, ZnPP 3 μM
Excerpt: as §1

VCaP cells [3] = assay: MTT viability assay, VCaP cells; format: cell-based; conditions: 72 h, full media, MTT, read-out: IC50, viability of VCaP cells
Excerpt: (§2) Biological Characterization. ITC-ARi hybrid drugs effectively reduce the viability of PCa cells. By using an MTT assay, it was first examined if the newly synthesized hybrid drugs affect the viability of CRPC-relevant PCa cells. PCa VCaP cells naturally express abundant wild type FL AR as well as AR splice variants (e.g., AR-V7). These cells were, therefore, used as one of the cell culture models in this work to investigate the drug-caused viability loss and AR downregulation.

22Rv1 cells [4] = assay: MTT viability assay, 22Rv1 cells; format: cell-based; conditions: 5 μM, 72 h
Excerpt: as §2

C4-2 cells [5] = assay: MTT viability assay, C4-2 cells; format: cell-based; conditions: 5 μM, 72 h
Excerpt: as §2

C4-2 cells [6] = conditions: for potentiation by BSO compared to 2-63, C4-2 cells: drug 2.5 μM, BSO pretreatment 16 h, 24 h
Experimental: (§4) Cell viability was then assessed using an MTT assay.
(§5) PCa cells (6×10^3 cells/well) were seeded into 96-well plates overnight and then treated with indicated compounds at indicated concentrations and time durations. The MTT (3-(4, 5-Dimethylthiazol-2-yl)-2,5-diphenyltetrazolium bromide) assay was performed according to the standard protocol. Briefly, MTT (0.5 mg/mL) was incubated with cells at 37° C. for 3 hours. Supernatant was removed, followed by the addition of dimethyl DMSO (100 μl). After incubation for 30 minutes at 37° C., absorbance was read at 570 nm on a microplate reader.

VCaP cells [7] = assay: BSO pretreatment plus drug, MTT viability, VCaP cells; conditions: drug 2.5 μM, BSO pretreatment 16 h, 24 h
Experimental: as §4, §5

22Rv1 cells [8] = assay: BSO pretreatment plus drug, MTT viability, 22Rv1 cells; conditions: drug 2.5 μM, BSO pretreatment 16 h, 24 h
Experimental: as §4, §5

[9] = system: acetylation of α-tubulin and histone H3 (markers for HDAC6 and nuclear HDAC inhibition); assay: Western blotting of acetylation markers in VCaP cells; format: cell-based; conditions: 16 h, 2-63 and 12b 5 and 15 μM, SAHA 1 μM; for α-tubulin acetylation: SFN 15 μM
Experimental: (§3) Western Blotting. […] Proteins in cell lysates (40 μg) were separated using electrophoresis on SDS-PAGE and transferred onto PVDF (polyvinylidenedifluoride) membranes. Membranes were blocked in 5% fat-free milk followed by incubation with primary antibodies overnight at 4° C., and the secondary horseradish peroxidase-conjugated anti-rabbit or anti-mouse antibodies. The blots were developed in the Enhanced Chemiluminescence mixture and detected by ImageQuant™ LAS 4000 imaging system (GE). Density of protein bonds were calculated and analyzed by using imageJ software downloaded from the National Institute of Health website.

Hsp90, Hsp70, HO-1 = assay: Western blotting of Hsp90, Hsp70 and HO-1 in VCaP cells; format: cell-based; conditions: 16 h, 5 and 15 μM
Experimental: as §3

VCaP cells [10] = assay: 3-79 plus BSO, MTT viability, VCaP cells; format: cell-based; conditions: for rescue of 3-79 plus BSO-induced viability loss, VCaP cells: 3-79 10 μM, BSO 100 μM, DFO 100 μM, α-Toc 100 μM, Fer-1 0.5 μM
Experimental: 3-79 and BSO effectively reduce the viability of VCaP cells. […] The viability loss of VCaP cells is rescued by antioxidants and iron chelators. […] Data (n=6-8) represent mean±SD obtained from MTT assay. Statistical significance was assessed by using two-tailed Student's t-tests. ***, P<0.001.

[11] = system: AR transcriptional activity in MDA-kb2 cells; assay: cells; format: cell-based; conditions: DHT 1 nM; for suppression of DHT-stimulated luciferase activity: 1-5 μM; for AR inhibition at higher concentrations relative to comparators: 2.5 and 5 μM; for inhibition at 1 µM: MDA-kb2, 1 μM compound, read-out: inhibition of DHT-stimulated luciferase activity
Experimental: MDA-kb2-cell-based ARE luciferase assays were performed to assess the influence of 2-63 and related compounds on AR transcriptional activity. […] Upon androgen stimulation and addition of a luciferase substrate, […], and the intensity is proportional to the extent of AR activation. An agent that either antagonistically competes with DHT for AR binding or reduces the expression of AR diminishes luciferase activity/fluorescence signal in this experimental system. […] 10b (an alcohol) and 11 b (an azide) are synthetic precursors of the ITC hybrid 12b.
Luciferase Assay. […] For all procedures, cells were incubated at CO2 free condition. Steady-Glo® (Promega Corp., Madison, WI) reagent was added to culture media with shaking for 10 min. Samples (100 μL) were transferred to an opaque 96-well white plate, and luminescence was measured using a luminometer.

[12] = system: AR, AR-V7, c-Myc, HO-1, Hsp70; assay: Western blotting under BSO combination, VCaP cells; format: cell-based
Experimental: as §1, §3

C4-2 cells [13] = conditions: 5 μM, DHT 1 nM, charcoal stripped FBS, 6 days
Experimental: The medium and drug were refreshed every two days.
The anti-PCa potential of 2-63 was further characterized by assessing its inhibitory effects on DHT-stimulated C4-2 cell growth. […] C4-2 cells were cultured in charcoal-stripped, steroid-free medium and cells were stimulated with androgen.

C=CC1=C(C)c2cc3[n-]c(cc4[n-]c(cc5nc(cc1n2)C(C)=C5C=C)c(C)c4CCC(=O)O)c(CCC(=O)O)c3C.[Zn+2] [ZnPP, Zinc(II) protoporphyrin IX]
rescue of 2-63 plus BSO-caused viability loss, VCaP cells (VCaP cells [1]): notable cytoprotective effects | rescue of 2-63 plus BSO-caused viability loss, 22Rv1 cells (22Rv1 cells [2]): notable cytoprotective effects

CC(=O)NC(CSC(=S)NCCc1ccccc1)C(=O)O (stereo not shown) [PEITC-NAC, reference compound]
pIC50 (VCaP cells [3]): 4.99 | relative potency in viability reduction, 22Rv1 cells (22Rv1 cells [4]): 12b>2-63>PEITC-NAC | relative potency in viability reduction, C4-2 cells (C4-2 cells [5]): 12b>2-63>PEITC-NAC | potentiation by BSO compared to 2-63, C4-2 cells (C4-2 cells [6]): more limited | potentiation by BSO compared to 2-63, VCaP cells (VCaP cells [7]): more limited | potentiation by BSO compared to 2-63, 22Rv1 cells (22Rv1 cells [8]): more limited

C[S+]([O-])CCCCN=C=S (stereo not shown) [SFN, sulforaphane, reference compound]
α-tubulin acetylation [9]: upregulated | HO-1 protein level (Hsp90, Hsp70, HO-1): dose-dependently upregulated | Hsp70 protein level (Hsp90, Hsp70, HO-1): significantly induced | Hsp90 protein level (Hsp90, Hsp70, HO-1): did not change

CN(C)C/C=C/C(=O)Nc1ccc(N2C(=S)N(c3ccc(C#N)c(C(F)(F)F)c3)C(=O)C2(C)C)cc1F [3-79, (E)-N-(4-(3-(4-cyano-3-(trifluoromethyl)phenyl)-5,5-dimethyl-4-oxo-2-thioxoimidazolidin-1-yl)-2-fluorophenyl)-4-(dimethylamino)but-2-enamide]
potency of 3-79 in viability suppression with BSO (VCaP cells [10]; VCaP, 3-79 10 μM plus BSO 100 μM): increased under GSH deficient conditions

ferric ammonium citrate
effect of exogenous iron on BSO plus 2-63 combination, VCaP cells (VCaP cells [1]; ferric ammonium citrate 25 μM, BSO 100 μM, 2-63 1 μM): exacerbated the lethal effect | effect of exogenous iron on BSO plus 2-63 combination, C4-2 cells (C4-2 cells [6]; ferric iron 25 μM, BSO 100 μM, 2-63 0.6-5 μM): significantly enhanced the suppressive effects

O=C(CCCCCCC(=O)Nc1ccccc1)NO [SAHA, suberoylanilide hydroxamic acid, reference compound]
histone H3 acetylation [9]: induced notable global acetylation | α-tubulin acetylation [9]: induced notable global acetylation

CC1(C)C(=O)N(c2ccc(C#N)c(C(F)(F)F)c2)C(=S)N1c1ccc(CCCCCCO)nc1 [10b, 4-(3-(6-(6-Hydroxyhexyl)pyridin-3-yl)-4,4-dimethyl-5-oxo-2-thioxoimidazolidin-1-yl)-2-(trifluoromethyl) benzonitrile]
suppression of DHT-stimulated luciferase activity [11]: decreased luciferase activity in a dose-dependent manner | AR inhibition at higher concentrations relative to comparators [11]: Enz-comparable | inhibition at 1 µM [11]: 60%

C[C@]12CCC(=O)C[C@@H]1CC[C@@H]1[C@@H]2CC[C@]2(C)[C@@H](O)CC[C@@H]12 [DHT, 5α-dihydrotestosterone, reference compound]
increase of luciferase activity ([11]; 24 h): 8.6 fold

CC1(C)C(=O)N(c2ccc(C#N)c(C(F)(F)F)c2)C(=S)N1c1ccc(CCCCN=C=S)nc1 [12a, 4-(3-(6-(4-Isothiocyanatobutyl)pyridin-3-yl)-4,4-dimethyl-5-oxo-2-thioxoimidazolidin-1-yl)-2-(trifluoromethyl) benzonitrile]
pIC50 (VCaP cells [3]; Homo sapiens, VCaP): 5.31

CC1(C)C(=O)N(c2ccc(C#N)c(C(F)(F)F)c2)C(=S)N1c1ccc(CCCCCCN=[N+]=[N-])nc1 [11b, 4-(3-(6-(6-Azidohexyl)pyridin-3-yl)-4,4-dimethyl-5-oxo-2-thioxoimidazolidin-1-yl)-2-(trifluoromethyl) benzonitrile]
suppression of DHT-stimulated luciferase activity [11]: decreased luciferase activity in a dose-dependent manner | AR inhibition at higher concentrations relative to comparators [11]: Enz-comparable | inhibition at 1 µM [11]: 60% | potentiation by BSO compared to 2-63, C4-2 cells (C4-2 cells [6]): more limited | potentiation by BSO compared to 2-63, VCaP cells (VCaP cells [7]): more limited | potentiation by BSO compared to 2-63, 22Rv1 cells (22Rv1 cells [8]): more limited

CNC(=O)c1ccc(N2C(=S)N(c3ccc(C#N)c(C(F)(F)F)c3)C(=O)C2(C)C)cc1F [Enz, 4-(3-(4-cyano-3-(trifluoromethyl)phenyl)-5,5-dimethyl-4-oxo-2-thioxoimidazolidin-1-yl)-2-fluoro-N-methyl benzamide, reference compound]
expression of examined cellular markers (AR, c-Myc, HO-1) ([12]; VCaP, Enz 10 μM, with or without BSO 100 μM, except upregulating AR-V7): did not affect | viability reduction of DHT-stimulated C4-2 cells (C4-2 cells [13]): 25%

Cc1c(C)c2c(c(C)c1O)CC[C@@](C)(CCC[C@H](C)CCC[C@H](C)CCCC(C)C)O2 [α-Toc, α-tocopherol]
rescue of 2-63 plus BSO-caused viability loss, VCaP cells (VCaP cells [1]): rescued | rescue of 2-63 plus BSO-caused viability loss, 22Rv1 cells (22Rv1 cells [2]): rescued | rescue of 3-79 plus BSO-induced viability loss, VCaP cells (VCaP cells [10]): rescued

CCOC(=O)c1ccc(NC2CCCCC2)c(N)c1 [Fer-1, ferrostatin-1]
rescue of AR/AR-V7 under 2-63 plus BSO, VCaP cells ([12]; DFO 100 μM, Fer-1 1 μM, BSO 100 μM, 2-63 2.5 μM, 24 h): failed to rescue AR/AR-V7 | rescue of 2-63 plus BSO-caused viability loss, VCaP cells (VCaP cells [1]): rescued | rescue of 2-63 plus BSO-caused viability loss, 22Rv1 cells (22Rv1 cells [2]): rescued | rescue of 3-79 plus BSO-induced viability loss, VCaP cells (VCaP cells [10]): rescued
